# Measurements: PubChem BioAssay AID624375 (Broad Institute, 2012)
# Inconclusive results are not listed. The source made the active and inactive calls.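 How the source made its calls: active means fitted curve reaches -35% activity change at a concentration under twice the top valid dose, in every replicate test; inconclusive means replicate tests disagree on the call; inactive means the rest, including activity in the opposite direction.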
# Tested on: not listed separately
# Assay: EBV-transformed lymphoblastoid cell viability decrease, dose response, EBV LMP1 NF-kB inhibitor project, CellTiter-Glo, dry powder, replicate tests (AID 624375)
# Settings: EBV-transformed LCL viability, CellTiter-Glo ATP luminescence, 48 h; at 10 µM (top of the series)
row,SMILES,"activity change, negative = inhibition"
1,C/C=C/C/C=C/CCC(=O)[C@H]1O[C@H]1C(N)=O,-4.56% (inactive)

# Same assay, conditions: EBV-transformed LCL viability, CellTiter-Glo ATP luminescence, 48 h; at 12 µM (top of the series)
row,SMILES,"activity change, negative = inhibition"
1,C=C1C[C@]23C[C@@]1(O)CC[C@H]2[C@@]12C=C[C@H](O)[C@@](C)(C(=O)O1)[C@H]2[C@@H]3C(=O)O,5.8% (inactive)

# Same assay, conditions: EBV-transformed LCL viability, CellTiter-Glo ATP luminescence, 48 h; at 19.5 µM (top of the series)
row,SMILES,"activity change, negative = inhibition"
1,COc1cccc(/C=N/Nc2ncnc3c2ncn3Cc2ccccc2)c1O,-7.51% (inactive)
2,CCc1ccc(/C=C2\SC(=S)N(CCCC(=O)Nc3ccccn3)C2=O)cc1,3.41% (inactive)
3,C[C@@H]1CCCCO[C@H](CN(C)C(=O)c2ccccc2)[C@H](C)CN([C@@H](C)CO)C(=O)c2cc(NC(=O)Nc3ccc(F)cc3)ccc2O1,2.16% (inactive)
4,c1ccc(-c2cn3c4c(sc3n2)CCCC4)cc1,6.87% (inactive)
5,C[C@@H]1CCCCO[C@H](CN(C)S(=O)(=O)c2ccccc2)[C@@H](C)CN([C@@H](C)CO)C(=O)c2cc(N(C)C)ccc2O1,-2.16% (inactive)
6,COc1ccc(-c2csc3ncnc(NCCN4CCOCC4)c23)cc1,-6.51% (inactive)
7,CCCSc1nnc2c3ccccc3n(Cc3ccccc3)c2n1,-1.02% (inactive)
8,CC1=C(C(=O)OCc2ccc3c(c2)OCO3)C(c2ccc(F)cc2)NC(=O)N1 (centres undefined),-2.46% (inactive)
9,C[C@@H]1CCCCO[C@@H](CN(C)Cc2ccccc2)[C@H](C)CN([C@H](C)CO)C(=O)c2cc(NC(=O)Nc3ccc4c(c3)OCO4)ccc2O1,1.71% (inactive)
10,CCc1ccc(/C=C/C(=O)C2C(=O)c3ccccc3C2=O)cc1,10.9% (inactive)
11,CCn1c2ccccc2c2cc(/C=N/n3cnnc3)ccc21,-4.23% (inactive)
12,COc1ccc(-c2cc3nc4n(c(=O)c3s2)CCC4)cc1,-3.35% (inactive)
13,C=CCN1Cc2ccccc2[C@@H]2OC(c3ccc(OCCCO)cc3)=N[C@]2(CCC(=O)OC(C)(C)C)C1=O,1.04% (inactive)
14,CCc1sc(C(=O)Nc2ncccc2O)cc1C,-13.2% (inactive)
15,O=C(CCc1ccccc1)NC(c1cccs1)c1cc(Cl)c2cccnc2c1O (centres undefined),4.93% (inactive)

# Tested on: EBV-transformed LCL viability, CellTiter-Glo ATP luminescence, 48 h
# Assay: as above
# Settings: not given
row,SMILES,AC35 [µM]
1,CCN1CCN(C(c2cccnc2)c2cc(Cl)c3cccnc3c2O)CC1 (centres undefined),26.5
2,Cc1c(NC(=O)c2cccc(NC(=O)COc3ccccc3C#N)c2)c(=O)n(-c2ccccc2)n1C,45.6
3,C/C(=N\NC(=S)N1CC2CCC(CC2)C1)c1ccncn1,< 0.08
4,C/C(=N\NC(=S)N1CC2CCC(CC2)C1)c1ccccn1,< 0.08
5,O=c1[nH]c(=O)n([C@H]2C[C@H](O)[C@@H](CO)O2)cc1C(F)(F)F,10.1
6,Nc1ccn([C@@H]2O[C@H](CO)[C@@H](O)C2O)c(=O)n1 (some centres undefined),26.1
7,Cc1ccnc(NC(=O)c2ccc(C(=O)c3ccccc3)cc2)c1,24.1
8,CC(C)=CCN(C(=O)C#Cc1ccccc1)[C@H](CO)c1ccccc1,8.22
9,CC(=O)Nc1nc(C)c(-c2csc(Nc3ccc(O)cc3)n2)s1,22.8
10,Cc1ccc(NC(=O)C2CCN(S(=O)(=O)c3ccc4c(c3)NC(=O)C(C)S4)CC2)cc1Cl (centres undefined),45.7
11,C[C@@H]1CCCCO[C@H](CN(C)C(=O)NC2CCCCC2)[C@H](C)CN([C@@H](C)CO)C(=O)c2cc(NC(=O)C3CCCCC3)ccc2O1,22.1
12,C=C1C[C@]23C[C@@]1(O)CC[C@@H]2c1cccc(C)c1[C@@H]3C(=O)O,9.19
13,C/C(=N\NC(=S)Nc1cccc(Cl)c1)c1ccccn1,< 0.08
14,COCCCNC(=O)C(C)Sc1nnc2c3cc(C)ccc3n(Cc3ccccc3F)c2n1 (centres undefined),25
15,C/C(=N\NC(=S)N1CCCC1)c1ccccn1,< 0.08
16,O=C(CSc1nnc2c3ccccc3n(Cc3ccccc3)c2n1)NCc1ccco1,44.1
17,CSC(=S)N/N=C(\C)c1cccc(C)n1,0.687
18,CC12CCC3C(CC=C4CC(O)CCC43CO)C1CCC2OC(=O)c1ccccc1 (centres undefined),45.6
19,C[C@@H]1CN([C@@H](C)CO)C(=O)c2cc(NC(=O)Nc3ccc4c(c3)OCO4)ccc2O[C@H]1CN(C)CC1CCCCC1,89.9
20,COc1ccc2[nH]c(C(=O)N/N=C/c3ccc(O)cc3O)cc2c1,26.7
21,C/C(=N\NC(=S)Nc1ccccc1Cl)c1ccccn1,< 0.08
22,C/C(=N\NC(=S)N1CCCCC1)c1ccccn1,< 0.08
23,C/C(=N\NC(=S)Nc1cccc(C)c1)c1ccccn1,< 0.08
24,C/C(=N\NC(=S)N1CC2CCC(CC2)C1)c1cnccn1,< 0.08

row,SMILES,AC35 [µM]
1,C[C@H](CO)N1C[C@H](C)[C@@H](CN(C)CC2CC2)OCCCC[C@H](C)Oc2ccc(NC(=O)Nc3cccc4ccccc34)cc2C1=O,43
2,C/C(=N\NC(=S)N1CCCCC1)c1cccc(C)n1,< 0.08
3,S=C(NCc1ccccn1)N/N=C/c1ccccn1,< 0.08
4,C/C(=N\NC(=S)N1CCN(c2ccccn2)CC1)c1ccccn1,< 0.08
5,C[C@H](CO)N1C[C@H](C)[C@H](CN(C)C(=O)Nc2ccc(C(F)(F)F)cc2)OCCCC[C@H](C)Oc2ccc(NC(=O)Nc3ccc(F)cc3)cc2C1=O,21.5
6,C[C@@H]1CN([C@@H](C)CO)C(=O)c2cc(NC(=O)Nc3ccc(C(F)(F)F)cc3)ccc2O[C@@H](C)CCCCO[C@@H]1CN(C)CC1CCCCC1,45.7
7,C[C@H]1CCCCO[C@@H](CN(C)CC2CCCCC2)[C@@H](C)CN([C@@H](C)CO)C(=O)c2cc(NC(=O)C3CCCCC3)ccc2O1,18.1
8,S=C(N/N=C(\c1ccccc1)c1ccccn1)N(Cc1ccccn1)Cc1ccccn1,0.135
9,O=C1/C(=C/c2ccncc2)SC(=S)N1Cc1ccccc1,38.5
10,C[C@@H]1CN([C@@H](C)CO)C(=O)c2cccc(NC(=O)Nc3cccc4ccccc34)c2O[C@H]1CN(C)C(=O)Nc1ccc(C(F)(F)F)cc1,29.8
11,C/C(=N\NC(=S)N1CCCCCC1)c1ccccn1,< 0.08
12,C/C(=N\NC(=S)N1CC2CCC(CC2)C1)c1cccc(C)n1,0.409
13,CSc1nc(-c2ccc(C)cc2)nc(C(Cl)Cl)n1,21.7
14,CCC(Sc1nnc2c3ccccc3n(Cc3ccc(Br)cc3)c2n1)C(=O)NCCCN1CCOCC1 (centres undefined),8.58
15,Fc1ccc2c(c1)c1nnc(SCCN3CCOCC3)nc1n2Cc1ccccc1,4.38
16,C/C(=N\NC(=S)N1CCN(C2CCCCCC2)CC1)c1ccccn1,< 0.08
17,C/C(=N\NC(=S)Nc1ccc(C)cc1)c1ccccn1,< 0.08
18,C[C@H](CO)N1C[C@H](C)[C@@H](CN(C)Cc2ccc(-c3ccccc3)cc2)Oc2ccc(NC(=O)Nc3cccc4ccccc34)cc2CC1=O,28.8
19,C[C@@H]1CN([C@@H](C)CO)C(=O)c2cc(NC(=O)Nc3ccc(C(F)(F)F)cc3)ccc2O[C@@H](C)CCCCO[C@H]1CN(C)Cc1ccc(C(F)(F)F)cc1,30.8
20,C/C(=N\NC(=S)Nc1ccccc1)c1ccccn1,< 0.08
21,COc1ccccc1NC(=S)N/N=C(\C)c1ccccn1,< 0.08
22,C/C(=N\NC(=S)N1CCC1)c1ccccn1,< 0.08
23,COc1ccc(NC(=O)c2ccc(OC(C)C(=O)O)cc2)cc1Cl (centres undefined),34.1
